Experimental data published in patent EP0939649B1, “ADDITIVE, IN PARTICULAR IN THE FORM OF AN EMULSION CONTAINING A TRIVALENT METAL CATION AND VACCINE COMPOSITION CONTAINING SAME” (priority 1996, dated 1998).

Assays:
[1] = test system: sérum albumine bovine (BSA); assay: Immunostimulant effect of adjuvants: IgG1/IgG2a antibody response in mice vaccinated subcutaneously with BSA antigen; type: in vivo, souris; conditions: 21 days after vaccination, 100 µl s.c. per mouse, 10 µg BSA, salts at optimal concentration; for réponse lgG2a: represents cellular response; for réponse lgG1: represents humoral response
Experimental: Ces compositions thérapeutiques comprennent, à titre d'antigène de la sérum albumine bovine (BSA), Grade V, Sigma.
Ces compositions thérapeutiques (dose/souris) d'un volume de 100 µl mises en oeuvre comprenaient 10µg d'antigène et ont été injectées par voie sous-cutanée.
Les résultats ont été obtenus 21 jours après vaccination:
Les réponses IgG 1 sont représentatives de la réponse humorale,
Les réponses IgG 2a sont représentatives de la réponse cellulaire.

[2] = Local reactions (lesions and granulomas) at the injection site after subcutaneous injection in mice; type: in vivo, souris; conditions: 8 days after s.c. injection, 1000 µl, 10 µg BSA
Experimental: On a injecté à différents lots comprenant chacun 5 souris, une composition thérapeutique d'un volume de 1000 µl, comprenant 10 µg d'antigène (BSA), par voie sous-cutanée. On a évalué les réactions locales (lésions et granulomes) 8 jours après injection.

Row | Compound | réponse lgG2a [1] | réponse lgG1 [1] | réactions locales (lésions et granulomes) ([2]; souris 1) | réactions locales (lésions et granulomes) ([2]; souris 2) | réactions locales (lésions et granulomes) ([2]; souris 3) | réactions locales (lésions et granulomes) ([2]; souris 5)
1 | [OH][Al]([OH])[OH] [AlOH, hydroxyde d'Aluminium] | <1000 | 8000 | – | – | – | –
2 | phosphate d'Aluminium [AlPO4] | <1000 | <1000 | – | – | – | –
3 | CC(=O)[O-].CC(=O)[O-].[Al+3].[OH-] [C4H7AlO5 (forme insoluble), forme insoluble d'acétate d'Aluminium (C4H7AlO5)] | <1000 | <1000 | – | – | – | –
4 | salicylate d'Aluminium | 6000 | 48000 | – | – | – | –
5 | CC(=O)[O-].[Al+3].[OH-].[OH-] [C2H5AlO4 (forme soluble), acétate d'Aluminium soluble (C2H5AlO4)] | 8000 | 64000 | 0 | 0 | 0 | 0
